Assay results reported in PubChem BioAssay AID588642 (The Scripps Research Institute Molecular Screening Center, 2011).
Activity calls are given as the source filed them.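 The calls were made as follows: active = MAPK1 kinase protein level shifted by at least 30% from solvent-only cells, either down or up; inactive = shift in protein level under 30% either way.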

biological target: Mitogen-activated protein kinase 1 (Homo sapiens) (UniProt P28482); test: total ERK1/2 protein level change, either direction, late-stage follow-up, counter-screen for KLF5 inhibitor project, cell-based, HCT116 colorectal carcinoma, chemiluminescent western blot (AID 588642); conditions: HCT116 ERK1/2 protein level, 24 h, at 10 µM, hits give high values
Sequence (P28482 whole entry, looked up): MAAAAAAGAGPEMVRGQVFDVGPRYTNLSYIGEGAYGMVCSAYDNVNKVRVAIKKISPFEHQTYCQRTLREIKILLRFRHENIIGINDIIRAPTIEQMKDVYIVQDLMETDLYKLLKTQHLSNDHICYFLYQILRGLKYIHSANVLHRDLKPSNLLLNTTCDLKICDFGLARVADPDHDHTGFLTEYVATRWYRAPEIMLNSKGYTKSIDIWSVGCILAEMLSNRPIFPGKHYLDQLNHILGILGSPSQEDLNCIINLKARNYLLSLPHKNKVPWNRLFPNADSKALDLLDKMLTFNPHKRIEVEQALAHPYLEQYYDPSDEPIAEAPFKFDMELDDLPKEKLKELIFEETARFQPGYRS

SMILES | inhibition
CN(C(=O)CNC(=O)/C=C/c1cccc(Cl)c1)C1CCS(=O)(=O)C1 (stereo not drawn) | 5.48% (inactive)
CN(C(=O)COC(=O)/C=C/c1cccc([N+](=O)[O-])c1)C1CCS(=O)(=O)C1 (stereo not drawn) | 4.62% (inactive)
CN(C(=O)CNC(=O)/C=C/c1cccc(Cl)c1)C1CCS(=O)(=O)CC1 | 3.03% (inactive)
